# Laboratory results reported in patent US11607406B2, “Therapeutical methods, formulations and nutraceutical formulations” (priority 2014, dated 2023).
# Tests used:
# volunteer [1] = experiment: Pre ejaculation time of volunteers after taking the formulation or drug orally; type: in vivo, human; settings: for average pre ejaculation time: 5 minutes without the drug
# volunteer [2] = experiment: Side effects reported by the volunteers after taking the formulation or drug orally; type: in vivo, human
# [3] = capsule, 60 mg only, after 3 hours, repeated experiments
compound,measurement,setting,value
CN[C@H]1CC[C@@H](c2ccc(Cl)c(Cl)c2)c2ccccc21 [sertraline],average pre ejaculation time,volunteer [1]; 60 mg once daily for 10 days continuously,10 min
same,increase in pre-ejaculation time,volunteer [1]; [3],no significant increase
same,side effects,"volunteer [2]; capsule, 60 mg only","significant side effects (stomach irritation, nausea and headache)"
"COc1cc2c(cc1OC)[C@@H]1Cc3ccc(OC)c(OC)c3CN1CC2 [rotundine, L-tetrahydropalmatine]",ejaculation latency,"volunteer [1]; alone, taken orally 50~200 mg 1 hr before sex",increase ejaculation latency
CNCC[C@H](Oc1cccc2ccccc12)c1cccs1 [duloxetine],increase in pre-ejaculation time,volunteer [1]; [3],no significant increase
same,side effects,"volunteer [2]; capsule, 60 mg only","significant side effects (stomach irritation, nausea and headache)"
"COc1cccc(C2(O)CCCCC2CN(C)C)c1 (centres unmarked) [Tramadol, 2-[(dimethylamino)methyl]-1-(3-methoxyphenyl)-cyclohexanol]",average pre ejaculation time,volunteer [1]; 20 mg only,10 min
Fc1ccc([C@@H]2CCNC[C@H]2COc2ccc3c(c2)OCO3)cc1 [paroxetine],average pre ejaculation time,"volunteer [1]; capsule, 30 mg only, after 3 hours, repeated experiments",8 min
same,side effects,"volunteer [2]; capsule, 30 mg only (paroxetine)","significant side effects (stomach irritation, nausea and headache)"
CC(C)=CCC[C@]1(C)[C@@H](CC=C(C)C)C[C@@]2(CC=C(C)C)C(=O)[C@]1(C(=O)C(C)C)C(=O)C(CC=C(C)C)=C2O [hyperforin],average pre ejaculation time (change),"volunteer [1]; 1 capsule, 10 mg only, after 2 hours",not changed
same,average pre ejaculation time,"volunteer [1]; 1 capsule, 30 mg only, after 2 hours, repeated tests",around 8 minutes
same,side effects,"volunteer [2]; 1 capsule, 30 mg only (hyperforin)",headache
"COc1cc(/C=C/C(=O)CC(=O)/C=C/c2ccc(O)c(OC)c2)ccc1O [curcumin, diferuloylmethane]",changes in pre ejaculation time,"volunteer [1]; capsule with curcumin 500 mg, after 1 hours, 3 hours and 12 hours",no significant changes
CN(C)[C@@H](CCOc1cccc2ccccc12)c1ccccc1 [dapoxetine],average pre ejaculation time,volunteer [1]; [3],20 min
same,side effects,"volunteer [2]; capsule, 60 mg only","significant side effects (stomach irritation, nausea and headache)"
CN(C)CCC[C@@]1(c2ccc(F)cc2)OCc2cc(C#N)ccc21 [escitalopram],changes in pre ejaculation time,"volunteer [1]; 20 mg only, once orally, after 3 hours",no significant changes
same,side effects,"volunteer [2]; 20 mg only, once orally",significant side effects
